Numbers after ± are expanded uncertainties.
Conditions: Crystal; DTA

- Normal melting temperature: 193.00 ± 1 °C
Compound: NC(=O)N1c2ccccc2C=Cc2ccccc21 [carbamazepine]
